Reference: US20150238477A1, “Method of Treating Lung Adenocarcinoma” (EXELIXIS, INC., priority 2012, published 2015)

Key:
[1] = target: T1, RET (Homo sapiens, UniProt P07949, C634W); assay: phosphorylation of RET in TT xenograft tumors in vivo (Western immunoblot); design: species or system mice
T1 construct: endogenous in cells; host or cells: TT cells (human medullary thyroid carcinoma), in culture or as xenograft tumours in nu/nu mice

[2] = tested on: AKT and ERK; assay: phosphorylation of AKT and ERK in TT xenograft tumors in vivo; design: species or system mice; conditions: single 100-mg/kg oral dose
Description: Levels of phosphorylated and total RET and were determined in pooled lysates by Western immunoblot analysis. In a separate study, mice bearing TT tumors were administered a single oral dose of cabozantinib (100 mg/kg) or water vehicle, and levels of phosphorylated and total RET, AKT, and ERK in tumor lysates were determined at the indicated time points post dose. Densitometric quantitation of the duration of inhibition of phosphorylation of RET versus plasma concentrations of cabozantinib. Representative Western blot images are shown. […] This effect was reversible as RET phosphorylation returned to basal levels by 48 hours after treatment as depicted in FIG. 1C.

[3] = tested on: TT xenograft tumors; assay: TT xenograft tumor growth; format: in vivo, nu/nu mice; conditions: oral once daily, 21 days
Description: (§1) Nu/nu mice bearing TT tumors were orally administered once daily water vehicle (□) or cabozantinib at 3 mg/kg (∇), 10 mg/kg (◯), 30 mg/kg (♦), or 60 mg/kg (⋄) for 21 days. Tumor weights were determined twice weekly. Data points represent the mean tumor weight (in milligrams) and SE for each treatment group. Circulating calcitonin levels were determined in serum preparations from whole blood collected after the final indicated doses (* indicates a significant, P <0.05, reduction in circulating calcitonin when compared to serum samples from vehicle-treated control animals).

[4] = plasma concentrations in TT xenograft study; format: in vivo, nu/nu mice; conditions: 30- and 60-mg/kg doses, oral once daily
[5] = mouse, in vivo
Description: as §1
. Given that TT xenograft tumors are known to secrete high amounts of human calcitonin that correlates with tumor size, serum concentrations of circulating calcitonin were determined at the end of the dosing period. […]; P <0.005) at both the 30- and 60-mg/kg doses when compared to vehicle control animals, as depicted in FIG. 2B. Moreover, this reduction in circulating plasma calcitonin correlated with TT tumor growth inhibition described above. […]

[6] = target: T2, KIF5B-RET fusion-positive NSCLC (Homo sapiens, UniProt P07949); assay: case study, phase 1 monotherapy in a patient with KIF5B-RET fusion-positive NSCLC; format: in vivo
T2 construct: expression of variant 1 transcripts (KIF5B exon 15; RET exon 12); endogenous in cells; host or cells: lung adenocarcinoma cells of the patient (pleural effusion cells); the other entry of the earlier key: KIF5B (P33176, Kinesin-1 heavy chain)
T2 sequence (P07949 with tags, fused parts or gaps): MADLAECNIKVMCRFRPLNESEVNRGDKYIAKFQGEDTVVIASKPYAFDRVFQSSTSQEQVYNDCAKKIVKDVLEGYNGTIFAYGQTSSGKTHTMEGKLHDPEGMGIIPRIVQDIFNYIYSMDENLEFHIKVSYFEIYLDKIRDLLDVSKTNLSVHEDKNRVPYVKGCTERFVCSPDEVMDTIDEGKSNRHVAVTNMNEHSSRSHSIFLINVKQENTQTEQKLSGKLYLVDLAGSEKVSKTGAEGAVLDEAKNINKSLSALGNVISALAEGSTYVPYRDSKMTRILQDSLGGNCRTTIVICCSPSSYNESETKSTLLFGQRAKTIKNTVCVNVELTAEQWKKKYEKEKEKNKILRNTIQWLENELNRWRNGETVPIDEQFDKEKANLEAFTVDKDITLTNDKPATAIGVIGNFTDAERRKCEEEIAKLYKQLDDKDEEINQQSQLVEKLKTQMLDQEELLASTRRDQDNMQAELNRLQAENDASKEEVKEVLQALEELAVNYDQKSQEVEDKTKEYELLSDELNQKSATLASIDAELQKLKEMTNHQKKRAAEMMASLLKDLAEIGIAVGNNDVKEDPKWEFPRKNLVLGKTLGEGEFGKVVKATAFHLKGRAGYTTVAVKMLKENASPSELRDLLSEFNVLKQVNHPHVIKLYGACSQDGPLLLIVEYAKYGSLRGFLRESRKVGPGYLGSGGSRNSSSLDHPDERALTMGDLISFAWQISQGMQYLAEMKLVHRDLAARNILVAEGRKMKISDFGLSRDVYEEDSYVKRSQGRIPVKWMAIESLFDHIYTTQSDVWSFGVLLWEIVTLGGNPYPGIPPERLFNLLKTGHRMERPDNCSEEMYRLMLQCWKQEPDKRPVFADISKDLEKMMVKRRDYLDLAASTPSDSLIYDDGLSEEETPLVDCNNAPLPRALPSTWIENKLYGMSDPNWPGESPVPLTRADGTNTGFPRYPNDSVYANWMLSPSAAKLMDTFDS
Description: A person who was a former smoker presented in April 2009 for evaluation of a right pleural effusion. […] There was also no tumor in either the neck or thyroid on the CT scans. The patient was diagnosed as having stage IIIB (cT4N0M0, 6th edition of the International System for Staging Lung cancer) adenocarcinoma of the lung. […] Re-growth of primary tumor was, however, reported 8 months after the end of therapy. The patient subsequently received 13 cycles of docetaxel as second-line treatment and 2 cycles of an investigational drug (anti-HER2 [human epidermal growth factor receptor type2] antibody) as third-line treatment. […] Yamamoto, N., Nokihara, H., Wakui, H., Yamada, Y., Frye, J., DeCillis, A., and Tamura, T. A phase 1 multiple ascending dose study of cabozantinib (XL184) monotherapy in Japanese patients with advanced solid tumors. Molecular Cancer Therapeutics. 2011 10 suppl 1 (abstr C26) and Nokihara, H., Yamamoto, N., Nakamichi, S., Wakui, H., Yamada, Y., Frye, J., Decillis, A., and Tamura, T. in Annals of Oncology, Vol. 23, Supplement 9, published September 17, 2012.
In February 2012, they terminated cabozantinib monotherapy due to progressive disease.

[7] = tested on: medullary thyroid cancer; conditions: 25 of 37 patients with MTC; cited from earlier work
[8] = target: T3, KIF5B-RET (Homo sapiens, UniProt P07949); conditions: in vitro studies; cited from earlier work
T3 sequence (P07949 713-1063 limits assumed): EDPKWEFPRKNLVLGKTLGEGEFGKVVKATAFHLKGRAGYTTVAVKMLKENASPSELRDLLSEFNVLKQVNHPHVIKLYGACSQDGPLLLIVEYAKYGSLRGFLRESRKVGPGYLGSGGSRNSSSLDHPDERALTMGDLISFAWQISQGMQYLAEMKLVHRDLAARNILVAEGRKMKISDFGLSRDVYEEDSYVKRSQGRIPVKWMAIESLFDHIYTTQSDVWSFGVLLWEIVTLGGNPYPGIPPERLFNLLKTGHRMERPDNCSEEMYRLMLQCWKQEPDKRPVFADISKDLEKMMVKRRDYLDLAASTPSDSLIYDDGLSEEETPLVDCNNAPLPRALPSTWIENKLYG

T1 sequence (P07949 29-1114 C634W): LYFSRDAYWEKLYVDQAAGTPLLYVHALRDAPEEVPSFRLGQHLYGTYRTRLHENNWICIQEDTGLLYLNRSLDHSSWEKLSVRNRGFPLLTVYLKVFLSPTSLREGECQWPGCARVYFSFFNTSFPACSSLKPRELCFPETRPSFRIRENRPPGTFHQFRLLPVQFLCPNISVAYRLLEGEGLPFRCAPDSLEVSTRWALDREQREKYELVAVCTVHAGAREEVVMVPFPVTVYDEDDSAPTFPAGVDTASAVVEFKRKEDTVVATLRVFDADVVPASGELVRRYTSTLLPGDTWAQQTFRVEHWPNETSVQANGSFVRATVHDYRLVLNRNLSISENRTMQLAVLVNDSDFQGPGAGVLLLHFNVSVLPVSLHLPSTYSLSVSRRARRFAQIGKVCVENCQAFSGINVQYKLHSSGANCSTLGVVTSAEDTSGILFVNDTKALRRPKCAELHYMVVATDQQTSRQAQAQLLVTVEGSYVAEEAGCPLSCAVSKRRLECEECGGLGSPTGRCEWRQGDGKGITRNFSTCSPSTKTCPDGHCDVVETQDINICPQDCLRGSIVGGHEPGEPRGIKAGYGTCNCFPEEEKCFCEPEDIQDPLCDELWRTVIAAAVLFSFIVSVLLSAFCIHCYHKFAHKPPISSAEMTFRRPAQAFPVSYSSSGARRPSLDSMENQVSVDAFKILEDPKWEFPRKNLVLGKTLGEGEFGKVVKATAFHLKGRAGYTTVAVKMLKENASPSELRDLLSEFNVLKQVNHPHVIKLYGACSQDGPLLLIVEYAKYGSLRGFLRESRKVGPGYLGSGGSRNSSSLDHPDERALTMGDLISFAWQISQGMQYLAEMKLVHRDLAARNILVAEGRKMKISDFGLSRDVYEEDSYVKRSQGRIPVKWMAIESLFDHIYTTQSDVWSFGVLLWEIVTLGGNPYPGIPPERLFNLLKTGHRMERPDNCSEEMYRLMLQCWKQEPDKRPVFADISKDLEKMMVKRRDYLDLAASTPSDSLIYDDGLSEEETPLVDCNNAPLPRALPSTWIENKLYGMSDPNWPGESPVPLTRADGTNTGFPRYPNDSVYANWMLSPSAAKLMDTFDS

Row | SMILES | time of inhibition of phosphorylation of RET post dose ([1]; single 100-mg/kg oral dose) | time at which RET phosphorylation returned to basal levels ([1]; single 100-mg/kg oral dose, after treatment) | inhibition of phosphorylation of RET in tumors ([1]; single ascending oral dose, tumors collected 4 h post dose) | time of reduced phosphorylation levels of AKT and ERK post dose [2] | TT xenograft tumor growth ([3]; 10- and 30-mg/kg doses) | TT xenograft tumor growth outcome ([3]; 30- and 60-mg/kg doses) | peak cyclical plasma concentrations [4] | tolerability (stable body weights) [5] | adverse event leading to drug interruptions ([6]; during 10 cycles (months) of therapy, without clinical symptoms of pancreatitis) | response of primary lung tumor on chest CT ([6]; starting dose 40 mg once a day, at 9 weeks, confirmed at 17 weeks) | tumor reduction ([6]; starting dose 40 mg once a day, chest CT at 9 weeks) | patients with confirmed partial response or stable disease for 6 months or longer [7] | growth and signaling properties mediated by KIF5B-RET after treatment [8]
1 | COc1cc2nccc(Oc3ccc(NC(=O)C4(C(=O)Nc5ccc(F)cc5)CC4)cc3)c2cc1OC [Compound 1, N-(4-{[6,7-bis(methyloxy)quinolin-4-yl]oxy}phenyl)-N′-(4-fluorophenyl)cyclopropane-1,1-dicarboxamide] | 4 to 24 h | ≤ 48 h | dose-dependent inhibition of phosphorylation of RET | 4 to 24 h | dose-dependent inhibition | stable disease | 3,000 to 45,000 nmol/L | well tolerated | grade 3 serum lipase elevations | partial response | 40.1% | 68% | –
2 | CNC(=O)c1cc(Oc2ccc(NC(=O)Nc3ccc(Cl)c(C(F)(F)F)c3)cc2)ccn1 [sorafenib] | – | – | – | – | – | – | – | – | – | – | – | – | diminished
